Assay results from patent US12473583B2, “Use of guar gum, fluorescence-enhanced gold nanocluster, method for detecting alpha-glucosidase, and method for screening alpha-glucosidase inhibitor” (priority 2022, dated 2025).

Molecular target: α-glucosidase (α-Glu)
Experiment: Screening of α-Glu inhibitors by fluorescence detection with guar gum-gold nanocluster-Fe3+ mixed dispersion (AAG substrate)
Assay type: biochemical
Details: read from calibration curve of inhibitory efficiency vs concentration; third incubation 37° C. for 40 min, PBS pH=7.0, AAG substrate; fluorescence at 610 nm; read-out: IC50 (concentration of the inhibitor required to inhibit 50% α-Glu activity)
From the text: The present disclosure further provides a method for screening an α-Glu inhibitor, including the following steps: • providing a fluorescence-enhanced gold nanocluster-Fe^3+ mixed dispersion, where a fluorescence-enhanced gold nanocluster in the fluorescence-enhanced gold nanocluster-Fe^3+ mixed dispersion is the fluorescence-enhanced gold nanocluster in the above technical solution; • mixing an α-Glu inhibitor solution to be tested, an α-Glu solution, an AAG solution, and a PBS, and conducting third incubation to obtain a third incubation solution; • mixing the third incubation solution with the fluorescence-enhanced gold nanocluster-Fe^3+ mixed dispersion, and conducting fourth incubation to obtain a fourth incubation solution; and • subjecting the fourth incubation solution to fluorescence detection, and plotting a calibration curve of the α-Glu inhibitor to be tested according to a fluorescence emission intensity obtained by the fluorescence detection; according to the calibration curve of the α-Glu inhibitor to be tested, obtaining an IC50 of the α-Glu inhibitor to be tested to screen the α-Glu inhibitor. […]
In the present disclosure, the third incubation solution is mixed with the fluorescence-enhanced gold nanocluster-Fe^3+ mixed dispersion, and the fourth incubation is conducted to obtain the fourth incubation solution. […]

In the case of `COc1ccc([C@@H]2CC(=O)c3c(O)cc(O[C@@H]4O[C@H](CO[C@@H]5O[C@@H](C)[C@H](O)[C@@H](O)[C@H]5O)[C@@H](O)[C@H](O)[C@H]4O)cc3O2)cc1O` [hesperidin], the IC50 is reported as 101 µM.
